{"source": "patent US20040006048A1", "about": "“Combination of lecithin with ascorbic acid” (priority 2002, published 2004)", "type_in_all_cases": "in vivo", "key": {"[1]": {"tested_on": "rats in scopolamine induced memory deficit", "experiment": "Scopolamine induced memory deficit, water labyrinth learning test", "conditions": "scopolamine model, combination 2 × (30 + 10) mg/kg/day p.o."}, "normal rats": {"tested_on": "normal rats", "experiment": "Learning process of normal rats in water labyrinth", "conditions": "for Number of errors Mean ± S.E.M. / Swimming time (sec) Mean ± SEM.: p.o., Vit.-C 2 × 10, Lecithin 2 × 30, combination 2 × (30 + 10) mg/kg/day", "source_text": "Ascorbic acid and lecithin were ineffective when they were given separately (Table I.)."}, "normal mice": {"tested_on": "normal mice", "experiment": "Swimming test, physical performance of normal mice", "conditions": "for Swimming time (sec) mean ± S.E.M.: p.o., Vit-C 2 × 10, Lecithin 2 × 30, combination 2 × (30 + 10) mg/kg/day", "source_text": "In the study ascorbic acid was ineffective, when it was given in itself (Table III.)."}, "[2]": {"conditions": "versus vehicle (control) and single components"}}}
{"smiles": "CN1[C@@H]2C[C@@H](OC(=O)[C@H](CO)c3ccccc3)C[C@H]1[C@@H]1O[C@@H]12", "note": "[Scopolamine, scopolamine]", "values": [{"measurement": "Number of errors Mean ± S.E.M.", "setting": "[1]; session 1", "value": "16.2 ± 0.83"}, {"measurement": "Swimming time (sec) mean ± S.E.M.", "setting": "[1]; session 1", "value": "114.7 ± 9.45", "unit": "s"}, {"measurement": "Number of errors Mean ± S.E.M.", "setting": "[1]; session 2", "value": "11.6 ± 0.52^++"}, {"measurement": "Swimming time (sec) mean ± S.E.M.", "setting": "[1]; session 2", "value": "73.7 ± 6.22", "unit": "s"}, {"measurement": "Number of errors Mean ± S.E.M.", "setting": "[1]; session 3", "value": "8.9 ± 0.41^++"}, {"measurement": "Number of errors Mean ± S.E.M.", "setting": "[1]; session 4", "value": "6.3 ± 0.26^++"}]}
{"smiles": "O=C1O[C@H]([C@@H](O)CO)C(O)=C1O", "note": "[Vit.-C, ascorbic acid]", "values": [{"measurement": "Number of errors Mean ± S.E.M.", "setting": "normal rats; session 1", "value": "16.4 ± 0.45"}, {"measurement": "Swimming time (sec) Mean ± SEM.", "setting": "normal rats; session 1", "value": "140.3 ± 9.54", "unit": "s"}, {"measurement": "Number of errors Mean ± S.E.M.", "setting": "normal rats; session 2", "value": "11.6 ± 0.40"}, {"measurement": "Swimming time (sec) Mean ± SEM.", "setting": "normal rats; session 2", "value": "89.9 ± 6.22", "unit": "s"}, {"measurement": "Number of errors Mean ± S.E.M.", "setting": "normal rats; session 3", "value": "6.2 ± 0.76"}, {"measurement": "Swimming time (sec) Mean ± SEM.", "setting": "normal rats; session 3", "value": "64.9 ± 7.29", "unit": "s"}, {"measurement": "Number of errors Mean ± S.E.M.", "setting": "normal rats; session 4", "value": "3.9 ± 0.35"}, {"measurement": "Swimming time (sec) Mean ± SEM.", "setting": "normal rats; session 4", "value": "34.8 ± 2.79", "unit": "s"}, {"measurement": "Effect on the learning process of rats in water labyrinth (in words)", "setting": "normal rats; [2]", "value": "ineffective"}, {"measurement": "Swimming time (sec) mean ± S.E.M.", "setting": "normal mice; 1. day starting values", "value": "76.2 ± 3.7", "unit": "s"}, {"measurement": "Swimming time (sec) mean ± S.E.M.", "setting": "normal mice; 2. day", "value": "70.8 ± 3.8", "unit": "s"}, {"measurement": "Swimming time (sec) mean ± S.E.M.", "setting": "normal mice; 3. day", "value": "82.2 ± 3.4", "unit": "s"}, {"measurement": "Swimming time (sec) mean ± S.E.M.", "setting": "normal mice; 4. day", "value": "88.8 ± 6.1", "unit": "s"}, {"measurement": "Swimming time (sec) mean ± S.E.M.", "setting": "normal mice; 5. day", "value": "90.0 ± 6.9", "unit": "s"}, {"measurement": "Effect on the physical performance of mice in swimming test (in words)", "setting": "normal mice; [2]", "value": "ineffective"}]}
